This passage reports IC50 results from publication PMC5929560, “Deciphering the binding behavior of flavonoids to the cyclin dependent kinase 6/cyclin D complex” (PLoS ONE, 2018).

Each structure is given as a SMILES string.

Chain of CDK6 (Homo sapiens, UniProt Q00534) (Q00534 whole entry): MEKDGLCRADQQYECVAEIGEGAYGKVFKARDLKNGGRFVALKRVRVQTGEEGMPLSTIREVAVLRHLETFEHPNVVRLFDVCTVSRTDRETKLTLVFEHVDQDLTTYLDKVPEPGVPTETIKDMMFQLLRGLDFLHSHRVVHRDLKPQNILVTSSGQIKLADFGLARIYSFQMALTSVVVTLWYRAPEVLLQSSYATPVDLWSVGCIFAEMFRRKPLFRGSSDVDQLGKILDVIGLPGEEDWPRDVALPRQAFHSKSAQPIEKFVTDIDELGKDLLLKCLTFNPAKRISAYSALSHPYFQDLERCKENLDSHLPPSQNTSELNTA
Chain of CDK6 (Homo sapiens, UniProt Q00534) (P30281 whole entry partner): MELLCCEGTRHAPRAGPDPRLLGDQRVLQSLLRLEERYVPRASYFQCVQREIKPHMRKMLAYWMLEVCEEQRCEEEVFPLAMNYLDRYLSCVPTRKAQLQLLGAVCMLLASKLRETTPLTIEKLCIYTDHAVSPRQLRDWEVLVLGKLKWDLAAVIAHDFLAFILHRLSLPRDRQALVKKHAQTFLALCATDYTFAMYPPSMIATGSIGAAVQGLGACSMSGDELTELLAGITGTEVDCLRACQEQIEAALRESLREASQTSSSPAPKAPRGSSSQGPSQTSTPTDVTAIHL

In one experiment the target is CDK6 (Homo sapiens, UniProt Q00534). Nature of the experiment: Filter-binding kinase assay with [γ-32P]ATP and histone H1. It counts as biochemical. As to conditions: 25 μM ATP, 20 min at 30°C, triplicate. On the procedure:
To quantify the inhibitory activities of flavonoids on CDK6, the filter-binding assay was performed in 96-well filter plates. The total volume for each well was 0.1mL containing a final concentration of 20mM Tris-HCl (pH 7.4), 50mM NaCl, 1mM dithiothreitol, 10mM MgCl2, 25μM ATP (containing 0.25μCi of [γ-^32P]ATP), 0.1μg of CDK6, 10μg of histone H1, and appropriate dilutions of inhibitor. The reaction was initiated by the addition of [γ-^32P]ATP, and then incubated for 20min at 30°C. Samples were applied to P81 phosphocellulose papers strips (Whatman), and the strips were washed in phosphoric acid solution. The radioactivity was measured by liquid scintillation spectrometry. IC50 values were calculated from the dose-response curves. All experiments were carried out in triplicate.
For the molecule `O=c1cc(-c2ccccc2)oc2cc(O)cc(O)c12` [M01, Chrysin], the IC50 was determined as 4.5 ± 0.4 µM.

Molecule `O=c1c(O)c(-c2ccccc2)oc2cc(O)cc(O)c12` [M04, Galangin] registered a half-inhibitory concentration (IC50) of 52 ± 2.8 µM.

The molecule `O=c1c(-c2ccc(O)cc2)coc2cc(O)cc(O)c12` [M05, Genistein] displayed an IC50 of 38 ± 2.1 µM. Same read-out and setting: in the case of `O=c1c(O)c(-c2ccc(O)c(O)c2)oc2cc(O)cc(O)c12` [M06, Quercetin] it was 26.3 ± 1.9 µM; in that of `O=c1c(O)c(-c2ccc(O)cc2)oc2cc(O)cc(O)c12` [M07, Kaempferol], 19.8 ± 1.6 µM.

Turning to `O=c1cc(-c2ccc(O)c(O)c2)oc2cc(O)ccc12` [M15, 3’, 4’, 7-trihydroxyflavone], the IC50 turned out to be 23.3 ± 1.5 µM.

The subject of a further experiment is CDK6.
Assay: not given
As to conditions: cited from earlier work.
On to `O=c1c(O)c(-c2ccc(O)c(O)c2)oc2cc(O)ccc12` [M03, Fisetin], for which the IC50 was 0.85 µM. With `O=c1c(O)c(-c2ccc(O)c(O)c2)oc2cc(O)cc(O)c12` [M06, Quercetin], the IC50 is 26 µM.

Usually IC50 stands for the concentration that inhibits the measured activity by half.
